Experimental data taken from EP1551873B1, “AGONISTS AND ANTAGONISTS OF THE HUMAN ODORANT RECEPTOR OR17-4 AND USES THEREOF” (Symrise AG, priority 2002, dated 2004).

Columns and labels:
[1] = target: T1, hOR17-4 Rezeptor der vollen Länge (Homo sapiens, UniProt P34982); experiment: Ca2+ imaging of HEK293 cells expressing full-length receptor (pOR17-4v); assay type: cell-based
T1 construct: wurde der Rezeptor hOR17-4 in seiner vollen Länge wie in Beispiel 3 beschrieben kloniert; expressed in transfected cells; host or cells: HEK293, transient, plasmid pOR17-4v (pRC/CMV)
T1 sequence (P34982 1-312): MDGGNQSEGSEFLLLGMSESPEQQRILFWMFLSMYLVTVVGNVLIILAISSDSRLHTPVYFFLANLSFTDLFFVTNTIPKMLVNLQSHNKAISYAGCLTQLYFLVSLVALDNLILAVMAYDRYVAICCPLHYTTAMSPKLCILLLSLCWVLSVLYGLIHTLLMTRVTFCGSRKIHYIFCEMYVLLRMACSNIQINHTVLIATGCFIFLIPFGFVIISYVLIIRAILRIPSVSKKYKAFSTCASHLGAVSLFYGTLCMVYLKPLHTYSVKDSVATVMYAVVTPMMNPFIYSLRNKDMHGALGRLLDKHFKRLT
Text: Um einen Expressionsvektor für das gesamte hOR17-4-Gen ohne geänderte Aminosäuresequenz zu erhalten, wurde das 982 bp lange PCR-Produkt (SEQ ID NO. 3, Herstellung vergleiche Beispiel 2) über stumpfe Enden in den Hindlll/Xbal verdauten Vektor pRC/CMV (Invitrogen, Carlsbad, CA), dessen überhängende Enden mit Klenow-Enzym aufgefüllt worden waren, einkloniert.
HEK293-Zellen wurden in MEM (Life Technologies, Gaithersburg, MD), das mit 10 % hitze-inaktiviertem fetalem Kälber-Serum angereichert war, in einem Inkubator bei 37 °C in einer Atmosphäre aus 95 % befeuchteter Luft und 5 % CO2 kultiviert. Semikonfluente Zellen wurden in 35 mm Gefäßen (Falcon) mittels Calciumphosphat-Präzipitation (Zufall et al., PNAS 90 (1993), 9335-9339) unter Verwendung jeweils des Plasmids pOR17-4 bzw. pOR17-4v transfiziert. […]
Die Ca^2+-imaging-Experimente wurden auf dem Träger eines invertierten Zeiss-Mikroskopes durchgeführt, das für die ratiofluorometrische Bildgebung mit einer Xenon-Bogenlampe, einem Vielfach-Wellenlängen-Illuminations-System POLYCH-ROM II zur Anregung, einer gekühlten charge-coupled device (CCD)-Kamera und einer WinNT-basierten T.I.L.L.-Vision-Software zum Sammeln und raum- und zeitabhängigen Quantifizieren Ca^2+-abhängiger Fluoreszenz-Signale (F340/F380-Verhältnis) ausgestattet war. […]

humane Spermien = experiment: Sperm activation bioassay: swimming speed by computer-assisted video motion analysis (CAVMA); assay type: cell-based, human
Description: Gefrorene Samenproben von fünf gesunden Spendern wurden aus der California Cryobank (Los Angeles, CA, USA) erhalten und für Bioassays gemäß den World Health Organization-Richtlinien (World Health Organization: Laboratory for the examination of human serum and semen-cervical mucus interaction, Cambridge University Press (1993)) vorbereitet. Nachdem die Suspensionen auf 37 °C für 10 Minuten gebracht worden waren, wurde jede Probe in HEPES-gepufferter humaner Tubarflüssigkeit (HTF; Irvine Scientific, Santa Ana, CA, USA) überführt und auf 10^7 Zellen/ml eingestellt. Die Lösungen wurden dann bei 37 °C in einer 5 %-igen CO2-Atmosphäre aufbewahrt und innerhalb von 30 Minuten für Experimente verwendet (P. Quinn, Journal of Assisted Reproductive Genetics 12, 97-105 (1995)). Die Reaktionen von Sperma auf Bourgeonal wurde (a) durch computer-assisted video motion analysis (CAVMA) gemessen, um Veränderungen in der Schwimmgeschwindigkeit (Spermaaktivierung) zu detektieren, und (b) in einem flat capillary-Assay für die Chemotaxis in der Nähe einer Diffusionsmaterialquelle untersucht. Für jede Test-oder Kontroll-Behandlung wurden fünf wiederholte Experimente unter Verwendung von Sperma der fünf Spender durchgeführt. Die Daten der Bioassays wurden statistisch durch Ein-Weg-Varianzanalyse (ANOVA) unter Verwendung eines post-hoc Scheffe-Tests (R. W. Day and G. P. Quinn, Ecol. Monogr. 59, 433-463 (1989)) analysiert. Eine Bonferroni-Korrektur wurde zum Angleichen der α-Levels für multiple Vergleiche verwendet.
Zur Untersuchung der Spermien-Aktivierung wurden Bioassays für die Schwimmgeschwindigkeit bei 37 °C durchgeführt. Spermien wurden sanft einer Kontroll- oder Testlösung einheitlicher Konzentration zugefügt. Die Bilder von Spermien (3,0 x 10^3 Zellen/ml) wurden dann unter Verwendung einer Videokamera (NEC Modell TI 23A), die auf einem Olympus IX70-Lichtmikroskop montiert war, bei 90-facher Vergrößerung aufgenommen. Um mögliche Artefakte durch Reibungskräfte zu minimieren, besaß die Kamera eine 100 µm Feldtiefe und fokussierte auf eine Region, die annäherend 2 mm von der nächsten Oberfläche entfernt war. Videobilder von Spermien wurden mit 30 Bildern/Sekunde digitalisiert und über 10-Sekundenintervalle unter Verwendung eines CAVMA-Systemes (Motion Analysis Corporation, Modell VP 320, Expert Vision und Benutzter-Software), verbunden mit einer Sun SPARC 2 Computer-Arbeitsstation bearbeitet (J. A. Riffell, P. J. Krug, R. K. Zimmer, Journal of Experimental Biology 205, 1439-1450 (2002)). Die Schwimmgeschwindigkeit wurde auf einer Bild-zu-Bild-Basis bestimmt und danach über jeden einzelnen zurückgelegten Weg gemittelt. Um zu vermeiden, sich horizontal anstatt vertikal bewegende Zellen zu messen, wurden kurze Wege mit weniger als 11 Bildern verworfen, bei denen sich die Spermien um mehr als 20 % in ihrer scheinbaren Größe veränderten.

| Aktivierung des vollständigen Rezeptors hOR17-4 [1] | EC50 (humane Spermien; Homo sapiens, Sperm, 37 °C, read-out: ED50 (Konzentration, die die halbmaximale Antwort hervorruft), Schwimmgeschwindigkeit) [nM] | Inhibition der Bourgeonal-Antwort ([1]; 30 to 60 s pre-incubation of the cells) | SMILES | Konzentration ohne weiteren Anstieg der Schwimmgeschwindigkeit (humane Spermien) | Konzentrationen mit signifikanten Antworten im Verhältnis zur HTF-Kontrolle, Schwimmgeschwindigkeit (humane Spermien; Scheffé test P ≤ 0,03) | Effekt auf das Spermienverhalten, Schwimmgeschwindigkeit (humane Spermien; 10^-7 M alone, P > 0,99) | Schwimmgeschwindigkeit als Antwort auf 10^-7 M Bourgeonal relativ zur HTF-Kontrolle (humane Spermien; co-applied with 10^-6, 10^-7 or 10^-8 M n-Undecanal, P > 0,99) |
| --- | --- | --- | --- | --- | --- | --- | --- |
| aktivierte deutlich | 30 | – | CC(C)(C)c1ccc(CCC=O)cc1 [Bourgeonal] | > 10^-6 M | ≥ 10^-8 M | – | – |
| – | – | inhibiert | CCCCCCCCCCC=O [n-Undecanal] | – | – | keinen messbaren Effekt | nicht signifikant erhöht |
